# Read-outs that look alike come from different tables or passages of the source. Numbered stars: 1 amine (or outer) side, 2 acyl side, 3 side chain; on linkers, the order of the positions; unused ones are H or OH. Bridge positions count the residues as written; N and C are the ends. Square brackets hold non-standard residues; d marks the D form. Peptide text beside a SMILES is read from it. * marks the point of attachment. DOTA = O=C(O)CN1CCN(CC(=O)O)CCN(CC(=O)*)CCN(CC(=O)O)CC1; Phe(4-CH2COOH) = N[C@@H](Cc1ccc(CC(=O)O)cc1)C(=O)O; Phe(4-CF3) = N[C@@H](Cc1ccc(C(F)(F)F)cc1)C(=O)O; Phe(3-Cl) = N[C@@H](Cc1cccc(Cl)c1)C(=O)O; Propanoyl(3-SO2NH2) = NS(=O)(=O)CCC(=O)*; Arg(Me) = CNC(=N)NCCC[C@H](N)C(=O)O; X1 = O=C(CC1CCN([*:1])CC1)[*:2]; Cit = NC(=O)NCCC[C@H](N)C(=O)O; Lys(Me) = CNCCCC[C@H](N)C(=O)O; Tle = CC(C)(C)[C@H](N)C(=O)O; 4Amb = NCc1ccc(C(=O)O)cc1; Aib = CC(C)(N)C(=O)O
# Assays:
# [1] = target: T1, Fc-fusion protein of human PSMA (hPSMA-Fc) (Homo sapiens, UniProt Q04609); assay: Surface plasmon resonance assay (Biacore T200, single cycle kinetic); format: binding; settings: read-out: pKD CAT (converted)
# T1 construct: purchased Acro Biosystems PSA-H5264
# T1 sequence (Q04609 44-750 limits assumed): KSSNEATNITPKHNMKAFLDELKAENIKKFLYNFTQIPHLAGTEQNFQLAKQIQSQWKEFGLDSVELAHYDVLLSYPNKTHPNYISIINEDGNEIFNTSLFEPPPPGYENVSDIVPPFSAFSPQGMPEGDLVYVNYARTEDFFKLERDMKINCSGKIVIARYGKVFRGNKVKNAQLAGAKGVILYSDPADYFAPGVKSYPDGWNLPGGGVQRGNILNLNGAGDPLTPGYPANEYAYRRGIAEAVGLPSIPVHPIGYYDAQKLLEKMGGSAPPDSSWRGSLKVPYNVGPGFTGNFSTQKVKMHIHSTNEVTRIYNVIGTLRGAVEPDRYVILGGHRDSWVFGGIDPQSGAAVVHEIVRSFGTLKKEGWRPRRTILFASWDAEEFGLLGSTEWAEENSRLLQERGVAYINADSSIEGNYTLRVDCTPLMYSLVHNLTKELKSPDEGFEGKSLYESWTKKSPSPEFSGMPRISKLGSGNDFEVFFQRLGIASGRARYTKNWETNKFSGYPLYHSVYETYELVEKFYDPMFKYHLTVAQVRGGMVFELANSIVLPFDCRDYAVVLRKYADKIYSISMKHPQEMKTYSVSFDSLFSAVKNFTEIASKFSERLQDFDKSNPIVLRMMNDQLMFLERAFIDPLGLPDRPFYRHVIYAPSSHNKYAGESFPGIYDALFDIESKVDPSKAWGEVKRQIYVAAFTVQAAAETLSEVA
# Summary of the method: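 hPSMA-Fc was captured (~1000 RU) on an Fc-binding-peptide CM5 chip, and compounds were run in single cycle kinetic mode at 25° C in HBST with 0.1% DMSO. Double-blank-corrected sensorgrams were fitted to a 1:1 Langmuir model to give KD, reported as pKD.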
# [2] = target: T2, PSMA-expressing C4-2 cells (Homo sapiens, UniProt Q04609); assay: FACS binding assay (competition with 50 nM PSM-0183); settings: read-out: pIC50 [C4-2] CAT (converted)
# T2 construct: PSMA-expressing C4-2 cells (ATCC, Cat. No. CRL-3314) were cultured in RPMI-1640; host or cells: C4-2 cells
# T2 sequence (Q04609 whole entry): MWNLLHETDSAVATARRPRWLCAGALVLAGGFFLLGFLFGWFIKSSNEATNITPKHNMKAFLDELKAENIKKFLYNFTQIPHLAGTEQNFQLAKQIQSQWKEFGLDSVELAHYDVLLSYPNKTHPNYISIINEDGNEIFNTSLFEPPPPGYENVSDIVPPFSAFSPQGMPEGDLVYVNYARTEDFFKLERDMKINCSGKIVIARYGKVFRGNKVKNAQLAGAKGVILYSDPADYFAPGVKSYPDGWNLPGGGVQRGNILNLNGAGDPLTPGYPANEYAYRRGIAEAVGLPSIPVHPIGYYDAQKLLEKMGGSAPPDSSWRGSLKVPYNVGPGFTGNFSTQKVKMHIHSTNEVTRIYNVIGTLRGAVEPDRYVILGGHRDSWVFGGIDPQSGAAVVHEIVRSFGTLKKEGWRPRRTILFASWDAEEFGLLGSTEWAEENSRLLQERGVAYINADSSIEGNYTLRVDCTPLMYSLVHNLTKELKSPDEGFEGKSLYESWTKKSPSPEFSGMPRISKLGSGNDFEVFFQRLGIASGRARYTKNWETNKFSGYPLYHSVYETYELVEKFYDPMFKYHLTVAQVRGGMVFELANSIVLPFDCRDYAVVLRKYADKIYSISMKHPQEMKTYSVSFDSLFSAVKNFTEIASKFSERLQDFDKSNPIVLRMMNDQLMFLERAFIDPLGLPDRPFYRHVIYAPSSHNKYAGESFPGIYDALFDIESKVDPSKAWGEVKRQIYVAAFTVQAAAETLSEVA
# Summary of the method: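 C4-2 cells were incubated 1 h at 4 °C with 50 nM AF488-labelled peptide PSM-0183 plus increasing test compound concentrations, then washed twice in ice-cold buffer. Median fluorescence in the AF488 channel was read by flow cytometry. IC50/pIC50 was derived by 4PL fitting of MFI versus concentration.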
# [3] = FACS binding, C4-2 cells, category
# [4] = SPR, hPSMA-Fc, single cycle kinetic, 25° C., category
# [5] = FACS binding, C4-2 cells, competition with 50 nM PSM-0183, category
"Kd ([1]; PSMA SPR assay, category) [nM]","IC50 [2, 3] [nM]","Kd [1, 4] [nM]","IC50 [2, 5] [nM]",Structure (SMILES),other results
> 501,> 3160,–,–,"C[C@@H](O)[C@H](NC(=O)[C@@H](NC(=O)[C@@H]1CSSC[C@H](NC(=O)[C@H](Cc2ccc(CC(=O)O)cc2)NC(=O)C(C)(C)NC(=O)[C@@H](NC(=O)CC2CCN(C(=O)CN3CCN(CC(=O)O)CCN(CC(=O)O)CCN(CC(=O)O)CC3)CC2)[C@@H](C)O)C(=O)N[C@@H](CCCCN)C(=O)N[C@@H](CCCNC(=N)N)C(=O)NC(C)(C)C(=O)N[C@@H](CC(N)=O)C(=O)N1)C(C)(C)C)C(N)=O [PSM-0566, DOTA-Cmp-Thr-Aib-Fac-[Cys-Lys-Arg-Aib-Asn-Cys]-Tle-Thr-NH2] ({DOTA}-[X1]T[Aib][Phe(4-CH2COOH)]CKR[Aib]NC[Tle]T-NH2; disulfide 5-10)",–
–,–,< 12.6,< 200,"C[C@@H](O)[C@H](NC(=O)[C@@H](NC(=O)[C@@H]1CSSC[C@H](NC(=O)[C@H](Cc2ccccc2)NC(=O)C(C)(C)NC(=O)CCS(N)(=O)=O)C(=O)N[C@@H](CCCCN)C(=O)N[C@@H](CCCNC(=N)N)C(=O)NC(C)(C)C(=O)N[C@@H](CC(N)=O)C(=O)N1)C(C)(C)C)C(N)=O [PSM-0224, SaPr-Aib-Phe-[Cys-Lys-Arg-Aib-Asn-Cys]-Tle-Thr-NH2] ({Propanoyl(3-SO2NH2)}-[Aib]FCKR[Aib]NC[Tle]T-NH2; disulfide 3-8)",–
< 12.6,< 200,–,–,"C[C@@H](O)[C@H](NC(=O)[C@@H](NC(=O)[C@@H]1CSSC[C@H](NC(=O)[C@H](Cc2cccc(Cl)c2)NC(=O)C(C)(C)NC(=O)[C@@H](NC(=O)CC2CCN(C(=O)CN3CCN(CC(=O)O)CCN(CC(=O)O)CCN(CC(=O)O)CC3)CC2)[C@@H](C)O)C(=O)N[C@@H](CCCCN)C(=O)N[C@@H](CCCNC(=N)N)C(=O)NC(C)(C)C(=O)N[C@@H](CC(N)=O)C(=O)N1)C(C)(C)C)C(N)=O [PSM-0583, DOTA-Cmp-Thr-Aib-Mcf-[Cys-Lys-Arg-Aib-Asn-Cys]-Tle-Thr-NH2] ({DOTA}-[X1]T[Aib][Phe(3-Cl)]CKR[Aib]NC[Tle]T-NH2; disulfide 5-10)",–
–,–,< 12.6,< 200,"C[C@@H](O)[C@H](NC(=O)[C@@H](NC(=O)[C@@H]1CSSC[C@H](NC(=O)[C@H](Cc2ccccc2)NC(=O)C(C)(C)NC(=O)[C@@H](NC(=O)c2ccc(CNC(=O)CN3CCN(CC(=O)O)CCN(CC(=O)O)CCN(CC(=O)O)CC3)cc2)[C@@H](C)O)C(=O)N[C@@H](CCCCN)C(=O)N[C@@H](CCCNC(=N)N)C(=O)NC(C)(C)C(=O)N[C@@H](CC(N)=O)C(=O)N1)C(C)(C)C)C(N)=O [PSM-0202, DOTA-Pamb-Thr-Aib-Phe-[Cys-Lys-Arg-Aib-Asn-Cys]-Tle-Thr-NH2] ({DOTA-4Amb}-T[Aib]FCKR[Aib]NC[Tle]T-NH2; disulfide 4-9)",–
–,–,–,–,"CC(=O)N[C@H](C(=O)NC(C)(C)C(=O)N[C@@H](Cc1ccccc1)C(=O)N[C@H]1CSSC[C@@H](C(=O)N[C@H](C(=O)N[C@H](C(=O)N[C@@H](CC(=O)O)C(N)=O)[C@@H](C)O)C(C)(C)C)NC(=O)[C@H](CC(N)=O)NC(=O)C(C)(C)NC(=O)[C@H](CCCNC(N)=O)NC(=O)[C@H](CCCCN)NC1=O)[C@@H](C)O [PSM-0280, Ac-Thr-Aib-Phe-[Cys-Lys-Cit-Aib-Asn-Cys]-Tle-Thr-Asp-NH2] (Ac-T[Aib]FCK[Cit][Aib]NC[Tle]TD-NH2; disulfide 4-9)","Kd ([1]; PSMA SPR assay, hPSMA-Fc, 25° C., pKD category): < 12.6 nM; IC50 ([2]; FACS binding, PSMA-expressing C4-2 cells, pIC50 category): < 200 nM"
–,–,–,–,"CNCCCC[C@@H]1NC(=O)[C@@H](NC(=O)[C@H](Cc2ccc(C(F)(F)F)cc2)NC(=O)C(C)(C)NC(=O)[C@@H](NC(=O)CC2CCN(C(=O)CN3CCN(CC(=O)O)CCN(CC(=O)O)CCN(CC(=O)O)CC3)CC2)[C@@H](C)O)CSSC[C@@H](C(=O)N[C@H](C(N)=O)C(C)(C)C)NC(=O)[C@H](CC(N)=O)NC(=O)C(C)(C)NC(=O)[C@H](CCCNC(=N)NC)NC1=O [PSM-0549, DOTA-Cmp-Thr-Aib-Ptf-[Cys-Lys(Me)-Arg(Me)-Aib-Ass-Cys]-Tle-NH2] ({DOTA}-[X1]T[Aib][Phe(4-CF3)]C[Lys(Me)][Arg(Me)][Aib]NC[Tle]-NH2; disulfide 5-10)","Kd ([1]; pKD category for PSMA SPR activity assay, hPSMA-Fc, 25° C.): 12.6 to 126 nM; IC50 ([2]; pIC50 category of FACS binding, C4-2 cells): < 200 nM"

# From patent publication US20260083865A1, “PROSTATE SPECIFIC MEMBRANE ANTIGEN (PSMA) LIGANDS AND USE THEREOF” (priority 2022, published 2026)
